Assay [1] deals with T1, human IBAT (Homo sapiens, UniProt Q12908).
T1 construct: expressed in transfected cells; Puromycin-selected IBAT-overexpressing cells
T1 sequence (Q12908 1-348): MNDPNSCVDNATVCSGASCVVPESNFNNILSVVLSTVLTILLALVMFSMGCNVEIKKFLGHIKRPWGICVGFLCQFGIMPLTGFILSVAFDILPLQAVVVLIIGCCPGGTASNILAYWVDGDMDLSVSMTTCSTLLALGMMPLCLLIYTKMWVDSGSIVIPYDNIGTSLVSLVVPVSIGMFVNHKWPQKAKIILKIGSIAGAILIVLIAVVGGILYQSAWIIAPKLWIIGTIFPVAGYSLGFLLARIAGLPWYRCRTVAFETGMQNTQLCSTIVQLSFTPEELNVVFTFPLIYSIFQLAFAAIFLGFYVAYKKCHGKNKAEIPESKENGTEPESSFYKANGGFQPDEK
Nature of the assay: IBAT (h/m) assay, human IBAT-overexpressing cells, 3H-taurocholic acid uptake. It counts as cell-based. The note with it: 0.25 μM 3H-taurocholic acid + 5 μM cold taurocholic acid, 20 minutes, read-out: hIBAT IC50. Here is the method: 10,000 cells (Human or Mouse IBAT-overexpressing cells) were seeded in 96-wells plate (Corning CLS3809) in 200 μL MEM-alpha medium (Gibco 12571-063) supplemented with 10% FBS (Gibco 10438026) containing Puromycin (Gibco A1113803) (10 μg/mL) and incubated at 37° C. in 5% CO2 for 48 hours. After incubation, media was decanted from the wells and cells were washed two times with 300 μL of basal MEM-alpha medium (FBS-free). After decanting basal MEM-alpha medium each time, plates were tapped against paper towel to ensure maximum removal of residual media. Test inhibitor dilutions (highest test concentration being 10 μM, 3-fold serial dilution, 10 points) prepared in DMSO (Sigma D2650) were added in incubation mix (maintaining 0.2% final DMSO concentration) containing 0.25 μM 3H-taurocholic acid (ARC ART-1368) and 5 μM of cold taurocholic acid (Sigma T4009). 50 μL of incubation mix containing test inhibitors was then added to the wells (in duplicate) and the plates were incubated for 20 minutes in a CO2 incubator at 37° C. After incubation, the reaction was stopped by keeping the plates on ice water mix for 2-3 minutes and then the incubation mix was aspirated completely from the wells. The wells were washed two times with 250 μL of chilled unlabelled 1 mM taurocholic acid dissolved in HEPES (Gibco 15630080)-buffered (10 mM) HBSS (Gibco 14175079) (pH 7.4). The plates were tapped against a paper towel after every wash to ensure maximum removal of blocking buffer.
100 μL of MicroScint-20 (PerkinElmer 6013621) was added to the wells and kept overnight at room temperature before reading the plates in TopCount NXT™ Microplate Scintillation and Luminescence Counter from PerkinElmer under 3H Test protocol (set at 120 seconds reading time per well).
(§1) All test compounds were provided in powder form at room temperature. 10 mM DMSO stocks of the test compounds were prepared, aliquoted and stored at −20° C. From the 10 mM DMSO stock of the compounds, a 3-fold serial dilution in DMSO was prepared to get a total of 10 dilutions of the test compounds. 0.5 μL of this dilution in DMSO was added to 250 μL of FBS-free basal media containing 3H-taurocholic acid and cold taurocholic acid to prepare the incubation mixture.

Assay [2] concerns the target T2, human LBAT (Homo sapiens, UniProt Q14973).
T2 construct: expressed in transfected cells; Geneticin-selected LBAT-overexpressing cells
T2 sequence (Q14973 1-349): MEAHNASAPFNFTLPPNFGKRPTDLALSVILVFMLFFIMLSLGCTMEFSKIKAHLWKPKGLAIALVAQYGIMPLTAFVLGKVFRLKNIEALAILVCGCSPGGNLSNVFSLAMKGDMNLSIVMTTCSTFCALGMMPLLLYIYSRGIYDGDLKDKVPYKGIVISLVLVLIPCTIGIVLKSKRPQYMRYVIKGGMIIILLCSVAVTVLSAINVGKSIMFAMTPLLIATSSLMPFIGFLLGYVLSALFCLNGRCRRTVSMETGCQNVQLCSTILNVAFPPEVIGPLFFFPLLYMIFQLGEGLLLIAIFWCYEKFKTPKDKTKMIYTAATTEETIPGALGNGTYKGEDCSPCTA
The experiment in a line: LBAT (h/m) assay, human LBAT-overexpressing cells, 3H-taurocholic acid uptake. It counts as cell-based. The note with it: 0.3 μM 3H-taurocholic acid + 7.5 μM cold taurocholic acid, 20 minutes, read-out: hLBAT IC50. Here is the method:
20,000 cells (Human or Mouse LBAT-overexpressing cells) were seeded in 96-wells plate (Corning CLS3809) in 100 μL MEM-alpha medium (Gibco 12571-063) supplemented with 10% FBS (Gibco 10438026) containing Geneticin (Gibco 10131-027) (1 mg/mL) and incubated at 37° C. in 5% CO2 for 24 hours. After incubation, media was decanted from the wells and cells were washed two times with 300 μL of basal MEM-alpha medium (FBS-free). After decanting basal MEM-alpha medium each time, plates were tapped against paper towel to ensure maximum removal of residual media.
For human LBAT, incubation mix was prepared by adding test inhibitor dilutions (3-fold serial dilution in DMSO (Sigma D2650), 10 points) in MEM-alpha (without FBS) containing 0.3 μM 3H-taurocholic acid (ARC ART-1368) and 7.5 μM cold taurocholic acid (Sigma T4009) (maintaining 0.2% final DMSO concentration). For mouse LBAT, incubation mix was prepared by adding test inhibitor dilutions (3-fold serial dilution in DMSO, 10 points) in MEM-alpha (without FBS) containing 0.3 μM 3H-taurocholic acid and 25 μM cold taurocholic acid maintaining 0.2% final DMSO concentration).
50 μL of incubation mix containing test inhibitors was then added to the wells (in duplicate) and the plates were incubated for 20 minutes in a CO2 incubator at 37° C. After incubation, the reaction was stopped by keeping the plates on ice water mix for 2-3 minutes and then the incubation mix was aspirated completely from the wells. The wells were washed two times with 250 μL of chilled unlabelled 1 mM taurocholic acid dissolved in HEPES (Gibco 15630080)-buffered (10 mM) HBSS (Gibco 14175079) (pH 7.4). The plates were tapped against a paper towel after every wash to ensure maximum removal of blocking buffer.
100 μL of MicroScint-20 (PerkinElmer 6013621) was added to the wells and kept overnight at room temperature before reading the plates in TopCount NXT™ Microplate Scintillation and Luminescence Counter from PerkinElmer under 3H Test protocol (set at 120 seconds reading time per well, with normal plate orientation).
as §1

Consider `CCCCC1(CC)CN(c2ccccc2)c2cc(SC)c(OCCC(=O)O)cc2S(=O)(=O)N1` (racemic) [Example 2, 3-((3-butyl-3-ethyl-7-(methylthio)-1,1-dioxido-5-phenyl-2,3,4,5-tetrahydro-1,2,5-benzothiadiazepin-8-yl)oxy)propanoic acid], for which the IC50 in assay [1] was 4 nM; in assay [2] it was 736 nM.
For `CCCCC1(CC)CN(c2ccccc2)c2cc(N(C)C)c(OCCC(=O)O)cc2S(=O)(=O)N1` (single isomer, unassigned) [Example 13, 3-((3-butyl-7-(dimethylamino)-3-ethyl-1,1-dioxido-5-phenyl-2,3,4,5-tetrahydro-1,2,5-benzothiadiazepin-8-yl)oxy)propanoic acid], the half-maximal inhibitory concentration (IC50) was found to be 15 nM in assay [1] and 2220 nM in assay [2].
For `CCCCC1(CC)CN(c2ccccc2)c2cc(SC)c(OCCC(=O)O)cc2S(=O)(=O)N1` (single isomer, unassigned) [Example 3, 3-((3-butyl-3-ethyl-7-(methylthio)-1,1-dioxido-5-phenyl-2,3,4,5-tetrahydro-1,2,5-benzothiadiazepin-8-yl)oxy)propanoic acid], in that order: 23 nM and 283 nM.
Take `CCCCC1(CC)CN(c2ccccc2)c2cc(SC)c(OCC(N)C(=O)O)cc2S(=O)(=O)N1` (stereo not shown) [Example 14, O-(3-butyl-3-ethyl-7-(methylthio)-1,1-dioxido-5-phenyl-2,3,4,5-tetrahydro-1,2,5-benzothiadiazepin-8-yl)serine]: the IC50 in assay [1] turned out to be 6 nM; in assay [2] it was 342 nM.
Consider `CCCCC1(CCCC)CN(c2ccccc2)c2cc(SC)c(OCC(O)C(=O)O)cc2S(=O)(=O)N1` (single isomer, unassigned) [Example 6, 3-((3,3-dibutyl-7-(methylthio)-1,1-dioxido-5-phenyl-2,3,4,5-tetrahydro-1,2,5-benzothiadiazepin-8-yl)oxy)-2-hydroxypropanoic acid], for which the IC50 came to 14 nM in assay [1] and 3660 nM in assay [2].

For the origin of these results see patent US11603359B2, “Benzothiadiazepine compounds and their use as bile acid modulators” (Albireo AB, priority 2019, dated 2023).
